Test results as given in patent US7442547B2, “Dendritic cells and the uses thereof in screening cellular targets and potential drugs” (Sekmed, S.R.L., priority 2001, dated 2008).

Tests used:
[1] = system: DC (D1, D8, BMDC/RAG2−/−); test: IL-2 production by DC after stimulation in vitro (IL-2 ELISA of supernatant); assay type: cell-based, mouse; settings: splenic (D1) and bone marrow-derived DC (D8, BMDC/RAG2−/−), long- and short-term lines
Experimental: Antibodies and Reagents. LPS (E. Coli 026:B6, used at 10 μg/ml) and zymosan (used at 10 μg/ml) were obtained from Sigma Chem. (St. Louis, Mo.). rTNF, (San Francisco) and rIL-1. (Genzyme, Cambridge Mass.) were used at 100 U/ml and 10 μg/ml respectively. IFN was kindly provided by Schering-Plough (Dardilli, Fr.) and used at 1000 U/ml. CpG ([…])(SEQ ID NO. 5) and CpG control ([…]) (SEQ ID NO. 6) oligos were purchased from Life Technologies and used at a concentration of 1 µM. PE-conjugated anti-IL-2, PE-conjugated rat Isotype control, biotinilated anti-CD8α and FITC-conjugated anti-CD11c monoclonal antibodies were purchased from Pharmingen. Quantum-red-conjugated streptavidin was obtained from Sigma. Anti-I-A^d/I-E^d mAb (clone M5 /114, rat IgG2b) was kindly provided by Dr. A. Ager (NIMR, London, UK). FITC-conjugated anti-rat was from Jackson ImmunoResearch (West Grove, Pa.). Anti-CD40 antibody [clone FGK45 (10)] was used at a concentration of 20 μg/ml and crosslinked with a monoclonal anti-rat antibody (10 μg/ml, PharMingen).
DC and culture medium. D1 and D8.1 long term DC were cultured in IMDM (Sigma, St. Louis, Mo.) containing 10% heat-inactivated fetal bovine serum (GIBCO), 100 IU penicillin, 100 μg/ml streptomycin, 2 mM L-glutamine (all from Sigma), and 50 μM 2-mercaptoethanol (complete IMDM) with 30% supernatant from R1 medium [supernatant from NIH3T3 fibroblasts transfected with GM-CSF].
Fresh BMDCRAG2−/− were derived from RAG2−/− BALB/c or C57BL/6 bone marrow cells. Usually bone marrow cells cultured for two days and frozen. BMDCRAG2−/− were obtained from defrost cells after 7 days of culture in medium containing 10% of supernatant of GM-CSF transduced B16 tumor cells. BMDCRAG2−/− were used for activation only if they were immature, as judged by low B7.2 and CD40 expression.
IL-2 ELISA. IL-2 ELISA was performed using the DuoSet kit (R and D, Minneapolis, Minn.) and following the manufacturer recommendations. […]

D1 cells = test: Growth of D1 cells after stimulation (number of viable cells); assay type: cell-based, mouse
Source text: D1 cells were stimulated either with LPS or TNF-α for the indicated time. The number of viable cells at the indicated time points is expressed as percentage of seeded cells. LPS, LPS-stimulated cells; TNF-α, TNF-α-stimulated cells; NS, non-stimulated cells. Standard deviations of five independent experiments are reported.
Cells and reagents. The D1 cells were derived from murine splenic DC and maintained in vitro in IMDM supplemented with 30% R1 conditional medium as previously described. LPS (Escherichia coli sero- type 026:B6) was purchased from Sigma Chemical Co. and used at 10 μg/ml. Muriner TNF-α (Genetech Inc., San Francisco. Calif.) was used at 100 U/ml. Cells were grown and harvested at the same time.

Substance: tumor necrosis factor [TNFα]
- induction of IL-2 production/secretion by DC [1]: none of the inflammatory cytokines, used individually or added simultaneously to DC cultures, were able to promote IL-2 secretion
- doubling time of activated D1 cells (D1 cells): 130 h
- growth arrest of D1 cells (D1 cells; after stimulation): only a strong proliferation slow down but not a definitive growth arrest
